ChEMBL document CHEMBL1124202, “Synthesis and evaluation of multisubstrate inhibitors of an oncogene-encoded tyrosine-specific protein kinase. 2” (J Med Chem, 1988)

Biological target: T1, Tyrosine-protein kinase transforming protein Abl (Abelson murine leukemia virus, UniProt P00521)
T1 sequence (P00521 whole entry): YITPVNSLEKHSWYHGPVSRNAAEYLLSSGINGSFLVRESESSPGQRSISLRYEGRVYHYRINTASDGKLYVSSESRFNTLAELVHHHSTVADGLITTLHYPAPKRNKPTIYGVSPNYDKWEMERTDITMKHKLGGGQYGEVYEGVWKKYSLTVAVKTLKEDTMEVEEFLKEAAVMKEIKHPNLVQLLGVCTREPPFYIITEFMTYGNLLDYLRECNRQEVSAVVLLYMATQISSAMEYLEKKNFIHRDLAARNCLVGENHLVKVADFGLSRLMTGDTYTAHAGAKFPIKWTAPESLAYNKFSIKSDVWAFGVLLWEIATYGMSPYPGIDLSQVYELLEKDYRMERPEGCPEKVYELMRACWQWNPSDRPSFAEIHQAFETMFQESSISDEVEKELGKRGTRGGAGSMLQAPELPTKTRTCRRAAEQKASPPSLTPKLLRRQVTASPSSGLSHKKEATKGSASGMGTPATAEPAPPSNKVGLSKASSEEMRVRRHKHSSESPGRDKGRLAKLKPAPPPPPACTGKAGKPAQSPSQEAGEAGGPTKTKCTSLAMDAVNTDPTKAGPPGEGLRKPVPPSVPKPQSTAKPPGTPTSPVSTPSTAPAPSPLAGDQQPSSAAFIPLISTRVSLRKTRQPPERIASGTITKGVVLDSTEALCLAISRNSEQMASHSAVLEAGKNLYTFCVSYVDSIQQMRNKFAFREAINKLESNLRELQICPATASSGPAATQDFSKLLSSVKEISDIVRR
Assay: Inhibition of p60v-abl tyrosine kinase from Abelson murine leukemia virus

Cc1ccc(NP(=O)(O)OP(=O)(O)OP(=O)(O)OC[C@H]2O[C@@H](n3cnc4c(N)ncnc43)[C@H](O)[C@@H]2O)cc1
IC50: 150 µM

Nc1ncnc2c1ncn2[C@@H]1O[C@H](COP(=O)(O)OP(=O)(O)OP(=O)(O)Oc2ccccc2)[C@@H](O)[C@H]1O
IC50: 13 µM

COc1ccc(CNP(=O)(O)OP(=O)(O)OP(=O)(O)OC[C@H]2OC(n3cnc4c(N)ncnc43)[C@H](O)[C@@H]2O)cc1 (stereo partly drawn)
IC50: 90 µM

Cc1ccc(NP(=O)(O)OP(=O)(O)OP(=O)(O)OP(=O)(O)OC[C@H]2O[C@@H](n3cnc4c(N)ncnc43)[C@H](O)[C@@H]2O)cc1
IC50: 16 µM

Nc1ncnc2c1ncn2[C@@H]1O[C@H](COP(=O)(O)OP(=O)(O)OP(=O)(O)OP(=O)(O)Oc2ccccc2)[C@@H](O)[C@H]1O
IC50: 41 µM

CC(=O)NCCNP(=O)(O)OP(=O)(O)OP(=O)(O)OC[C@H]1O[C@@H](n2cnc3c(N)ncnc32)[C@H](O)[C@@H]1O
IC50: 25 µM

CC(=O)NC(Cc1ccc(NP(=O)(O)OP(=O)(O)OP(=O)(O)OC[C@H]2O[C@@H](n3cnc4c(N)ncnc43)[C@H](O)[C@@H]2O)cc1)C(N)=O (stereo partly drawn)
IC50: 44 µM

CC(=O)NC(Cc1ccc(NP(=O)(O)OP(=O)(O)OP(=O)(O)OP(=O)(O)OC[C@H]2O[C@@H](n3cnc4c(N)ncnc43)[C@H](O)[C@@H]2O)cc1)C(N)=O (stereo partly drawn)
IC50: 110 µM
